Experimental data from US20210261528A1, “SALTS OF (S)-(5-CYCLOBUTOXY-2-METHYL-6-(1-(PIPERIDIN-4-YL)-1H-PYRAZOL-4-YL)-3,4-DIHYDROQUINOLIN-1(2H)-YL)(CYCLOPROPYL)METHANONE AND SOLID FORMS THEREOF” (FORMA Therapeutics, Inc., priority 2018, published 2021).
“And” between values parts separate entries of the source, which are not always exact repeats. Identical values can stand only once. “Also recorded” adds a separate entry of the source.

Legend:
Format in all cases: physicochemical
[1] = Chemical stability by HPLC-UV at 275 nm and 254 nm (Table 9)
Procedure: High Pressure Liquid Chromatography (HPLC) data were obtained according to Tables 6 or 7, below:
A standard stock was dissolved with diluent in a volumetric flask (e.g., 25 mg in 25 mL). This stock was vortexed and sonicated 10 sec to dissolve, and then diluted 1:10, 1:4, and 1:2 either in volumetric flasks or in HPLC vials to generate a standard curve. […] Where appropriate, a blank was created to accurately replicate the matrix of the analytical sample, and peaks appearing in the blank were identified before integration and quantification using Chemstation software.
The chemical stability of Succinate Form A was determined using HPLC-UV at 275 nm and 254 nm.
The chemical stability of Form G was determined using HPLC-UV at 275 nm and 254 nm.

[2] = Hygroscopicity evaluation by Dynamic Vapor Sorption (DVS) with XRPD of the solids after DVS; details: for behaviour at high humidity (DVS): >60% RH; for behaviour at high humidity (DVS) / hygroscopicity (DVS): 25° C.; for solid form after the DVS test: XRPD of solids after DVS; for hygroscopicity (DVS): absorption up to 80% RH
Procedure: Dynamic Vapor Sorption (DVS) was obtained using a Surface Measurement Systems (SMS) DVS Intrinsic. The relative humidity at 25° C. were calibrated against deliquescence point of LiCl, Mg (NO3)2 and KCl.

[3] = Slurry turnover of Compound 2 Form B, Form I and Form G (Example 11, Table 25); details: 24 hours
Procedure: To further study the form identity of Form B and Form I, slurry turnover experiments were performed in two solvents with the addition of Form G. Form B was dissolved in IPAc and MTBE respectively to get saturated solutions. Similar mass of Form B, G and I were weighed into a 2-mL vial, upon which the corresponding saturated solution was added to give the slurry, which was stirred at RT or 50° C. After slurry for 24 hours, the solids obtained were analyzed by XRPD.

[4] = Slurry competition between Compound 2 Form G and Form O for stability evaluation (Example 10, Table 24); details: 24 hours
Procedure: The slurry competition experiments between the two anhydrates, Form G and Form O, were performed in two solvents, IPAc and MTBE, at RT and 50° C. for stability evaluation. Form O was dissolved in IPAc and MTBE respectively to get saturated solutions. Then, similar masses of Form G and Form O were added into a 2-mL vial, upon which the corresponding saturated solution was added to give the slurry, which was stirred at RT or 50° C. for 24 hours. The solids collected were analyzed by XRPD to confirm the form change.

[5] = Critical aw between Compound 2 Form G and Form I, slurry turnover in H2O/IPAc (Example 12, Table 26); details: for Final Form: 24 hrs
Procedure: To investigate the critical aw between hydrated Form I and the stable anhydrate, Form G, slurry turnover of Form I and Form G was conducted in a co-solvent system (H2O/IPAc) with different aw at RT and 50° C. Similar mass of Form G and Form I were added into a 2-mL vial, followed by adding solvent and stirring at RT or 50° C. for 24 hrs. The solids obtained were analyzed by XRPD to confirm the form change.

[6] = Aqueous solubility estimation of Compound 2 Form G, Form O and Form I at RT (Example 13, Table 27); details: for Observation Initial / Observation 2 hrs: about 3 mg in 50 μL water; for Observation 2 hrs: stirred 2 hrs
Procedure: Aqueous solubility tests at RT were conducted on the two potential anhydrates, Form G and O, and the hydrated Form I. About 3 mg of each form was weighed into a 2-mL vial. […] of water was added and stirred thoroughly at RT with the speed of 800 RPM.

C[C@H]1CCc2c(ccc(-c3cnn(C4CCNCC4)c3)c2OC2CCC2)N1C(=O)C1CC1.O=C(O)CCC(=O)O [A]
% Claim (275 nm) ([1]; 25° C./60% RH): 98.3% and 99.8% | % Purity (275 nm) ([1]; 25° C./60% RH): 98.64% and 98.78% | % Claim (275 nm) ([1]; initial): 95.2% | % Purity (275 nm) ([1]; initial): 98.73%

C[C@H]1CCc2c(ccc(-c3cnn(C4CCNCC4)c3)c2OC2CCC2)N1C(=O)C1CC1.O=C(O)CCCCC(=O)O [Adipate Form A]
behaviour at high humidity (DVS) [2]: deliquescent | solid form after the DVS test [2]: amorphous or jelly solids

C[C@H]1CCc2c(ccc(-c3cnn(C4CCNCC4)c3)c2OC2CCC2)N1C(=O)C1CC1.O=C(O)CCC(=O)O [Form B, (S)-(5-cyclobutoxy-2-methyl-6-(1-(piperidin-4-yl)-1H-pyrazol-4-yl)-3,4-dihydroquinolin-1(2H)-yl)(cyclopropyl)methanone succinate]
solid form after the DVS test ([2]; succinate): amorphous | hygroscopicity (DVS) ([2]; succinate): highly hygroscopic; also recorded: high hygroscopicity

C[C@H]1CCc2c(ccc(-c3cnn(C4CCNCC4)c3)c2OC2CCC2)N1C(=O)C1CC1.O=C(O)CCC(=O)O [Form B, G and I]
Results (solid form after slurry turnover, XRPD) ([3]; IPAc, 50° C.): Form G | Results (solid form after slurry turnover, XRPD) ([3]; IPAc, RT): Form G | Results (solid form after slurry turnover, XRPD) ([3]; MTBE, 50° C.): Form G | Results (solid form after slurry turnover, XRPD) ([3]; MTBE, RT): Form G

C[C@H]1CCc2c(ccc(-c3cnn(C4CCNCC4)c3)c2OC2CCC2)N1C(=O)C1CC1.O=C(O)CCC(=O)O [Form G and Form O]
Results (solid form after slurry competition, XRPD) ([4]; IPAc, 50° C.): Form G | Results (solid form after slurry competition, XRPD) ([4]; IPAc, RT): Form G | Results (solid form after slurry competition, XRPD) ([4]; MTBE, 50° C.): Form G | Results (solid form after slurry competition, XRPD) ([4]; MTBE, RT): Form G

C[C@H]1CCc2c(ccc(-c3cnn(C4CCNCC4)c3)c2OC2CCC2)N1C(=O)C1CC1.O=C(O)CCC(=O)O [Form I and Form G]
Final Form ([5]; H2O/IPAc (2.8:997.2, aw 0.18), 50° C.): Form G | Final Form ([5]; H2O/IPAc (2.8:997.2, aw 0.20), RT): Form G | Final Form ([5]; H2O/IPAc (6:994, aw 0.36), 50° C.): Form G | Final Form ([5]; H2O/IPAc (6:994, aw 0.40), RT): Form G | Final Form ([5]; H2O/IPAc (10:990, aw 0.55), 50° C.): Form G | Final Form ([5]; H2O/IPAc (10:990, aw 0.59), RT): Form G | Final Form ([5]; IPAc, 50° C.): Form G | Final Form ([5]; IPAc, RT): Form G

C[C@H]1CCc2c(ccc(-c3cnn(C4CCNCC4)c3)c2OC2CCC2)N1C(=O)C1CC1.O=C(O)CCC(=O)O [Form I, (S)-(5-cyclobutoxy-2-methyl-6-(1-(piperidin-4-yl)-1H-pyrazol-4-yl)-3,4-dihydroquinolin-1(2H)-yl)(cyclopropyl)methanone succinate]
solid form after the DVS test ([2]; succinate): amorphous | hygroscopicity (DVS) ([2]; succinate): high hygroscopicity | weight change before 60% RH (DVS) ([2]; before 60% RH): minor weight change | Observation Initial [6]: Little solid | Observation 2 hrs [6]: Clear | stability under ambient conditions compared to Form G ([5]; different aw): did not appear to have any stability

C[C@H]1CCc2c(ccc(-c3cnn(C4CCNCC4)c3)c2OC2CCC2)N1C(=O)C1CC1.O=C(O)CCC(=O)O [Form M, (S)-(5-cyclobutoxy-2-methyl-6-(1-(piperidin-4-yl)-1H-pyrazol-4-yl)-3,4-dihydroquinolin-1(2H)-yl)(cyclopropyl)methanone succinate]
solid form after the DVS test ([2]; succinate): amorphous | hygroscopicity (DVS) ([2]; succinate): highly hygroscopic; also recorded: high hygroscopicity

C[C@H]1CCc2c(ccc(-c3cnn(C4CCNCC4)c3)c2OC2CCC2)N1C(=O)C1CC1.O=C(O)CCC(=O)O [Form O, (S)-(5-cyclobutoxy-2-methyl-6-(1-(piperidin-4-yl)-1H-pyrazol-4-yl)-3,4-dihydroquinolin-1(2H)-yl)(cyclopropyl)methanone succinate]
solid form after the DVS test ([2]; succinate): amorphous | hygroscopicity (DVS) ([2]; succinate): highly hygroscopic; also recorded: high hygroscopicity | Observation Initial [6]: Little solid | Observation 2 hrs [6]: Clear | solubility at 2 h ([6]; thermodynamic from solid, water, stirring 2 hrs at 800 RPM): > 60 mg/mL

C[C@H]1CCc2c(ccc(-c3cnn(C4CCNCC4)c3)c2OC2CCC2)N1C(=O)C1CC1.O=C(O)/C=C/C(=O)O [Fumarate Form A]
behaviour at high humidity (DVS) [2]: deliquescent | solid form after the DVS test [2]: amorphous or jelly solids

C[C@H]1CCc2c(ccc(-c3cnn(C4CCNCC4)c3)c2OC2CCC2)N1C(=O)C1CC1.O=C(O)/C=C/C(=O)O [Fumarate Form B]
behaviour at high humidity (DVS) [2]: deliquescent | solid form after the DVS test [2]: amorphous or jelly solids

C[C@H]1CCc2c(ccc(-c3cnn(C4CCNCC4)c3)c2OC2CCC2)N1C(=O)C1CC1.O=C(O)/C=C/C(=O)O [Fumarate Form C]
behaviour at high humidity (DVS) [2]: deliquescent | solid form after the DVS test [2]: amorphous or jelly solids

C[C@H]1CCc2c(ccc(-c3cnn(C4CCNCC4)c3)c2OC2CCC2)N1C(=O)C1CC1.O=C(O)CCC(=O)O [G]
% Claim (275 nm) ([1]; 25° C./60% RH): 104% and 106% and 107% and 103% | % Purity (275 nm) ([1]; 25° C./60% RH): 98.84% and 98.86% | % Claim (275 nm) ([1]; 40° C./75% RH): 106% and 96.3% and 101% | % Purity (275 nm) ([1]; 40° C./75% RH): 98.51% and 98.33% and 97.37% and 96.72% | % Claim (275 nm) ([1]; 50° C.): 100% and 101% and 104% | % Purity (275 nm) ([1]; 50° C.): 98.69% and 97.37% and 97.79% | % Claim (275 nm) ([1]; 50° C.*): 98.1% | % Purity (275 nm) ([1]; 50° C.*): 94.24% | % Claim (275 nm) ([1]; Post DVS): 73.5% | % Purity (275 nm) ([1]; Post DVS): 98.91% | % Claim (275 nm) ([1]; RT): 106% and 103% and 107% | % Purity (275 nm) ([1]; RT): 98.85% and 98.88% and 98.82% and 98.86% | % Claim (275 nm) ([1]; initial): 102% | % Purity (275 nm) ([1]; initial): 98.84%
